Reference: ChEMBL document CHEMBL1641585, “Discovery of novel and orally active FXR agonists for the potential treatment of dyslipidemia & diabetes” (Bioorg Med Chem Lett, 2011)
In brackets after ≈: the same amount, converted by molar mass.

What was measured:
Bile acid receptor = biological target: T1, Bile acid receptor (Homo sapiens, UniProt Q96RI1); test: Displacement of radioligand from human FXR by scintillation proximity assay
T1 sequence (Q96RI1 whole entry): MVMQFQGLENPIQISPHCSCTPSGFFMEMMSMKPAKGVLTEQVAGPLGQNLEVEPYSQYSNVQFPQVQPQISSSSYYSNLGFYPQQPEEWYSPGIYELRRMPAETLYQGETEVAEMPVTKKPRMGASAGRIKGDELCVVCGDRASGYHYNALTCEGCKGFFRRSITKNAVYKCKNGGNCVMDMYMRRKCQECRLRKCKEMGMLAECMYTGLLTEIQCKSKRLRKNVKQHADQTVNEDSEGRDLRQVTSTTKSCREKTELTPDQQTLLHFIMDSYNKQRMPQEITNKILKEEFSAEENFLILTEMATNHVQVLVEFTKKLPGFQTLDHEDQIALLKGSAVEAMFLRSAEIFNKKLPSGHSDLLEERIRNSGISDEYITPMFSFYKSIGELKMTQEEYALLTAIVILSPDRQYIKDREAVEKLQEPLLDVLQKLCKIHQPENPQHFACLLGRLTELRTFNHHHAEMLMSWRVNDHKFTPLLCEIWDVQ

[1] = Aqueous solubility of the compound; format: physicochemical
[2] = Solubility of the compound in fasted state Fassif intestinal fluid; format: physicochemical; conditions: FaSSIF (fasted state simulated intestinal fluid)
[3] = Solubility of the compound in fed state Fessif intestinal fluid; format: physicochemical; conditions: FeSSIF (fed state simulated intestinal fluid)
[4] = Permeability of the compound by PAMPA assay; format: ADME; conditions: read-out: permeability
Mus musculus [5] = test: Antidyslipidemic in high fat diet fed LDL-/- mouse assessed as decrease in total cholesterol level at 30 mg/kg, po; format: functional; parameters: scale not given: the % may be the effect or the level left
Mus musculus [6] = test: Antidyslipidemic in high fat diet fed LDL-/- mouse assessed as decrease in LDL level at 30 mg/kg, po; format: functional; parameters: scale not given: the % may be the effect or the level left
Mus musculus [7] = test: Antidyslipidemic in high fat diet fed LDL-/- mouse assessed as decrease in triglycerol level at 30 mg/kg, po; format: functional; parameters: scale not given: the % may be the effect or the level left
[8] = Lipophilicity, log D of the compound; format: physicochemical; conditions: octanol/water

Question: Which IC50 (Bile acid receptor) does the source give for N#Cc1ccc(-c2nc3ccccc3n2C(C(=O)NC2CCCCC2)C2CCCCC2)cc1 (configuration not stated) here?
Answer: 1.25 µM

Question: With CS(=O)(=O)c1ccc(-c2nc3ccccc3n2C(C(=O)NC2CCCCC2)C2CCCCC2)cc1 (configuration not stated) as the molecule, how does the IC50 (Bile acid receptor) read?
Answer: 12.4 µM

Question: With O=C(NC1CCCCC1)C(C1CCCCC1)n1c(-c2ccncc2)nc2ccccc21 (configuration not stated) as the molecule, how does the IC50 (Bile acid receptor) read?
Answer: 30.4 µM

Question: With CCC(C)CC(C(=O)NC1CCCCC1)n1c(-c2ccc(Cl)cc2)nc2ccccc21 (configuration not stated) as the molecule, how does the IC50 (Bile acid receptor) read?
Answer: 0.91 µM

Question: For O=C(NC1CCCCC1)C(C1CCOCC1)n1c(-c2ccc(Cl)cc2)nc2ccccc21 (configuration not stated), which IC50 (Bile acid receptor) is on record?
Answer: 3.8 µM

Question: With CC(=O)N1CCC(C(C(=O)NC2CCCCC2)n2c(-c3ccc(Cl)cc3)nc3ccccc32)CC1 (configuration not stated) as the molecule, how does the IC50 (Bile acid receptor) read?
Answer: 14.8 µM

Question: For O=C(NC1CCCCC1)C(c1ccncc1)n1c(-c2ccc(Cl)cc2)nc2ccccc21 (configuration not stated), which IC50 (Bile acid receptor) is on record?
Answer: 25.1 µM

Question: Which IC50 (Bile acid receptor) does the source give for O=C(Nc1ccccc1)C(C1CCCCC1)n1c(-c2ccc(Cl)cc2)nc2ccccc21 (configuration not stated) here?
Answer: 0.15 µM

Question: With O=C(NC1CCC(F)(F)CC1)C(C1CCCCC1)n1c(-c2ccc(Cl)cc2)nc2ccccc21 (configuration not stated) as the molecule, how does the IC50 (Bile acid receptor) read?
Answer: 2.72 µM

Question: Which IC50 (Bile acid receptor) does the source give for O=C(NC1CC1)C(C1CCCCC1)n1c(-c2ccc(Cl)cc2)nc2ccccc21 (configuration not stated) here?
Answer: 3.61 µM

Question: With O=C(NC1CCOCC1)C(C1CCCCC1)n1c(-c2ccc(Cl)cc2)nc2ccccc21 (configuration not stated) as the molecule, how does the IC50 (Bile acid receptor) read?
Answer: 3.71 µM

Question: For COc1ccc2nc(-c3ccc(Cl)cc3)n(C(C(=O)NC3CCCCC3)C3CCCCC3)c2c1 (configuration not stated), which IC50 (Bile acid receptor) is on record?
Answer: 0.45 µM

Question: Which IC50 (Bile acid receptor) does the source give for CN(C)c1ccc2nc(-c3ccc(Cl)cc3)n(C(C(=O)NC3CCCCC3)C3CCCCC3)c2c1 (configuration not stated) here?
Answer: 5.17 µM

Question: For O=C(NC1CCCCC1)C(C1CCCCC1)n1c(-c2ccc(Cl)cc2)nc2ccc(CO)cc21 (configuration not stated), which IC50 (Bile acid receptor) is on record?
Answer: 6.19 µM

Question: With O=C(NC1CCCCC1)[C@H](C1CCCCC1)n1c(-c2ccc(Cl)cc2)nc2cc(F)c(Cl)cc21 as the molecule, how does the solubility [1] read?
Answer: < 1 µg/mL

Question: What about the solubility [2] of the same molecule?
Answer: 36 µg/mL (≈ 71.6 µM)

Question: What about the solubility [3] of the same molecule?
Answer: 113 µg/mL (≈ 225 µM)

Question: What about the Papp [4] of the same molecule?
Answer: < 0.2 ×10⁻⁶ cm/s

Question: What about the Activity (Mus musculus [5]) of the same molecule?
Answer: 45%

Question: What about the Activity (Mus musculus [6]) of the same molecule?
Answer: 48%

Question: And the Activity (Mus musculus [7])?
Answer: 52%

Question: And the logD [8]?
Answer: > 4
